Earlier results on 59 compounds are cited in the CATMoS acute toxicity set (Mansouri et al. 2021).

Several values for one entry are separate records, joined by “and”; a condition that tells them apart may be missing. Identical values can stand only once.

The nature of this data set: rat acute oral toxicity. The settings on record: in vivo.
Regarding `CCC(=O)OCC=Cc1ccccc1`, the LD50 (in general, the dose expected to kill half of the subjects tested) was 3400 mg/kg.
As to `CC(C)(N=C=O)c1cccc(C(C)(C)N=C=O)c1`, the 50% lethal dose (LD50) is 4600 mg/kg.
Take `CCCCOC(=O)Cc1ccc(N(CCCl)CCCl)cc1`: the LD50 was 20 mg/kg.
Turning to `CN(C)C/C=C(/c1ccc(Br)cc1)c1cccnc1`, the median lethal dose (LD50) is 900 mg/kg and 844 mg/kg.
Turning to `CCCCCCCCCCCC(=O)OCC(O)CO` (centres undefined), the LD50 is 52900 mg/kg.
On to `O=C(O)/C=C/C(=O)O`, for which the LD50 is 3850 mg/kg.
In the case of `CN(CCCn1cnc2c1c(=O)n(C)c(=O)n2C)c1ccccc1`, the LD50 was 1640 mg/kg.
On to `CC1CNCC(C)O1` (centres undefined), for which the median lethal dose (LD50) is 2830 mg/kg.
Take `CCCC(CCC)C(N)=O`: the LD50 was 890 mg/kg.
For the compound `CCN(CC)C(=O)c1nnn(-c2ccccc2)c1C`, the median lethal dose (LD50) was 500 mg/kg.
`Oc1ccc(C(O)CNCCCCCCNCC(O)c2ccc(O)c(O)c2)cc1O` (centres undefined): the median lethal dose (LD50) was 10000 mg/kg.
As to `CC(C(=O)Nc1cc(-c2ccccc2)nn1-c1ccccc1)N(C)C` (centres undefined), the 50% lethal dose (LD50) was 815 mg/kg.
`OCC1OC(N2CCN(C3OC(CO)C(O)C(O)C3O)CC2)C(O)C(O)C1O` (centres undefined): the LD50 was 30000 mg/kg.
For `CCCCCCCCCC=CC(=O)OC(=O)C=CCCCCCCCCC`, the LD50 was 3800 mg/kg.
For `CN(C)CCN1C(=O)c2ccccc2N(C)c2ccccc21`, the LD50 was 220 mg/kg.
As for `O=[N+]([O-])c1ccc(CCl)cc1`, the median lethal dose (LD50) is 1810 mg/kg.
As to `C=Cc1ccc(OCC2CO2)cc1` (centres undefined), the median lethal dose (LD50) is 1000 mg/kg.
Take `O=C(OC[C@H]1O[C@@H](OC(=O)c2cc(O)c(O)c(OC(=O)c3cc(O)c(O)c(O)c3)c2)[C@H](OC(=O)c2cc(O)c(O)c(OC(=O)c3cc(O)c(O)c(O)c3)c2)[C@@H](OC(=O)c2cc(O)c(O)c(OC(=O)c3cc(O)c(O)c(O)c3)c2)[C@@H]1OC(=O)c1cc(O)c(O)c(OC(=O)c2cc(O)c(O)c(O)c2)c1)c1cc(O)c(O)c(OC(=O)c2cc(O)c(O)c(O)c2)c1`: the LD50 was 2260 mg/kg.
Consider `CN(c1ccc(Cl)cc1Br)c1c([N+](=O)[O-])cc([N+](=O)[O-])cc1C(F)(F)F`, for which the LD50 is 4.5 mg/kg.
Take `O=[N+]([O-])c1nccs1`: the 50% lethal dose (LD50) was 137 mg/kg.
For the compound `Cc1cc(=O)oc2cc(OP(=O)(OCCCl)OCCCl)ccc12`, the LD50 was 141 mg/kg.
In the case of `CCC(=O)c1ccc(OCC(O)CO)c(OC)c1` (centres undefined), the LD50 is 1640 mg/kg.
Turning to `CCCCCCCCCCCCOCC(O)COS(=O)(O)=S` (centres undefined), the LD50 was 1820 mg/kg.
For the compound `O=C(CF)Nc1ccc(F)cc1`, the LD50 is 2 mg/kg.
For the compound `O=S1OC[C@@H]2[C@H](CO1)[C@]1(Cl)C(Cl)=C(Cl)[C@@]2(Cl)C1(Cl)Cl` (some centres undefined), the LD50 is 76 mg/kg.
As to `C=CCOC(=O)CCC`, the 50% lethal dose (LD50) was 250 mg/kg.
Turning to `CCOC(=O)C(C)(CC)Oc1ccc(Cc2ccc(Cl)cc2)cc1` (centres undefined), the LD50 was 9000 mg/kg.
Consider `CC(=O)OCC(=O)NCCCOc1cccc(CN2CCCCC2)c1`, for which the median lethal dose (LD50) is 755 mg/kg.
Turning to `O=C(CS)OCCOC(=O)CS`, the median lethal dose (LD50) is 330 mg/kg.
Consider `CCOC(=O)CCCCCCCCC(C)c1ccc(I)cc1` (centres undefined), for which the median lethal dose (LD50) is 2100 mg/kg.
Regarding `O=C(NC[P+](CO)(CO)CO)NC[P+](CO)(CO)CO`, the LD50 was 245 mg/kg.
`CN(C)C(=O)SCCCCOc1ccccc1`: the LD50 is 1150 mg/kg.
Consider `CC(=O)C(/N=N/c1ccc(-c2ccc(/N=N/C(C(C)=O)C(=O)Nc3ccccc3)c(Cl)c2)cc1Cl)C(=O)Nc1ccccc1` (centres undefined), for which the LD50 was 2230 mg/kg.
In the case of `CC(C)=CC1C(C(=O)OC(C#N)c2cccc(Oc3ccccc3)c2)C1(C)C` (centres undefined), the LD50 is 318 mg/kg.
`O=C1CCc2cc(C=CCCN3CCN(c4ccccc4)CC3)ccc2N1`: the LD50 is 500 mg/kg.
For the compound `CN1C(=O)OC(C)(C)C1=O`, the 50% lethal dose (LD50) was 2140 mg/kg.
As to `O=NN(CCCl)C(=O)NC1CCCCC1`, the median lethal dose (LD50) was 70 mg/kg.
For `COc1cc(C=CC(=S)N2CCOCC2)cc(OC)c1OC`, the LD50 is 1350 mg/kg.
With `Nc1ncnc2nccnc12`, the LD50 is 745 mg/kg.
As to `CCCCC(CC)CNCC(C)(N)CN(C)CC(CC)CCCC` (centres undefined), the LD50 is 1000 mg/kg.
For `CCN(CC)CCNC(=O)c1cc(Br)c(N)cc1OC`, the median lethal dose (LD50) was 545 mg/kg.
`CCCCC(CC)COCCO` (centres undefined): the LD50 is 3080 mg/kg.
As to `CC(=O)N1CCN(c2ccc(OC[C@H]3CO[C@](Cn4ccnc4)(c4ccc(Cl)cc4Cl)O3)cc2)CC1`, the LD50 is 166 mg/kg.
On to `CC(CCc1ccccc1)NCC(O)c1ccc(O)c(C(N)=O)c1` (centres undefined), for which the LD50 was 2110 mg/kg.
For `CCCCCCCCCCO`, the LD50 was 4720 mg/kg.
Turning to `CC(C(=O)O)c1ccc2c(c1)OCc1cc(Cl)ccc1C2=O` (centres undefined), the LD50 was 12 mg/kg.
As to `CC(=O)Oc1cc(C(F)(F)F)ccc1C(=O)O`, the median lethal dose (LD50) was 402 mg/kg.
For `N=C1C=C(Br)C(=O)c2c(N)cc(Br)c(O)c21`, the LD50 is 2400 mg/kg.
Regarding `CC(C=O)Cc1ccc(C(C)C)cc1` (centres undefined), the 50% lethal dose (LD50) was 3810 mg/kg.
Consider `Cc1cc(C(C)(C)CC(C)(C)C)ccc1OCCOCC[N+](C)(C)Cc1ccccc1`, for which the LD50 was 800 mg/kg.
With `O=C(Nc1cc(F)ccc1F)NC1CC1`, the median lethal dose (LD50) was 152 mg/kg.
For `BrC(Br)C(Br)Br`, the median lethal dose (LD50) was 1200 mg/kg.
For the compound `FC(F)(F)c1nc2c(Br)cc(Br)c(Br)c2[nH]1`, the LD50 was 12.8 mg/kg.
With `O=S(=O)(Cl)c1ccc(Cl)cc1`, the LD50 is 4250 mg/kg.
As to `Cc1nc(C)c(Cl)c(O)c1Cl`, the LD50 was 18000 mg/kg.
As to `Cc1c(-c2c(C)c(N)c3c(C(C)C)c(O)c(O)c(C=O)c3c2O)c(O)c2c(C=O)c(O)c(O)c(C(C)C)c2c1N`, the LD50 was 3270 mg/kg.
With `O=NN1CCOC1`, the 50% lethal dose (LD50) is 1500 mg/kg.
For `CCN(CC)C(C)C(=O)c1ccc(NS(C)(=O)=O)cc1` (centres undefined), the LD50 is 2350 mg/kg.
Turning to `CCCCc1c(OC(=O)c2ccccc2)n(-c2ccccc2)n(-c2ccccc2)c1=O`, the 50% lethal dose (LD50) was 2200 mg/kg.
